Experimental data: patent US10961236B2, “(S)-2-(1-cyclopropylethyl)-5-(4-methyl-2-((6-(2-oxopyrrolidin-1-yl)pyridin-2-yl)amino) thiazol-5-yl)-7-(methylsulfonyl)isoindolin-1-one as a phosphatidylinositol 3-kinase inhibitor” (AstraZeneca AB, priority 2016, dated 2021)

What was measured:
Type in all cases: biochemical
[1] = biological target: recombinant human PI3Kγ ((aa144-1102)-6His) (Homo sapiens (Human), UniProt P48736); experiment: Enzymatic activity assay for recombinant human PI3Kγ (ADP-Glo); settings: 1.2 nM PI3Kγ, 20 μM ATP, 80 μM DiC8-PIP2, ADP-Glo
Description: (§1) Enzymatic Activity Assay for Recombinant Human PI3K α, β, δ and γ.
(§2) The activity of recombinant human PI3Kγ ((aa144-1102)-6His) and PI3Kα, β, δ (6-His(p110-p85α)) was determined by measuring the ADP level after phosphorylation of DiC8-PIP2 using a commercially available ADP-Glo™ kit from Promega. The assay was carried out in white low volume 384 well plates in a final volume of 14 μl at R.T. The assay conditions contained the following: 50 mM Tris buffer pH 7.4, 2.1 mM DTT, 3 mM MgCl2, 0.05% CHAPS, 20 μM ATP, 80 μM DiC8-PIP2 and 1.2 nM PI3Kα, β, γ or 0.6 nM PI3Kδ. […] Routinely, inhibitors were pre-incubated with 3 μl of enzyme for 15 min prior to the addition of 2 μl substrate mixture for a further 60 min enzyme reaction. The phosphorylation was stopped with the addition of 3 μl ADP-Glo™ reagent (stop solution) followed by a 40 min incubation. Prior to detection 6 μl of ADP-Glo™ Kinase Detection Reagent was added and the plates were read in a micro plate reader using a Luminescence filter. All additions were followed by a short centrifugation step.

[2] = biological target: recombinant human PI3Kδ (6-His(p110-p85α)) (Homo sapiens (Human), UniProt O00329); experiment: Enzymatic activity assay for recombinant human PI3Kδ (ADP-Glo); settings: 0.6 nM PI3Kδ, 20 μM ATP, 80 μM DiC8-PIP2, ADP-Glo
Description: as §1, §2

[3] = biological target: recombinant human PI3Kα (6-His(p110-p85α)) (Homo sapiens (Human), UniProt P42336); experiment: Enzymatic activity assay for recombinant human PI3Kα (ADP-Glo); settings: 1.2 nM PI3Kα, 20 μM ATP, 80 μM DiC8-PIP2, ADP-Glo
Description: as §1
as §2, with “PI3Kδ. Potential inhibitors were made up in DMSO and then diluted in the assay to give a final concentration of not exceeding 1% (v/v) DMSO.” for “PI3Kδ.”

[4] = biological target: recombinant human PI3Kβ (6-His(p110-p85α)) (Homo sapiens (Human), UniProt P42338); experiment: Enzymatic activity assay for recombinant human PI3Kβ (ADP-Glo); settings: 1.2 nM PI3Kβ, 20 μM ATP, 80 μM DiC8-PIP2, ADP-Glo
Description: as §1
as §2, with “PI3Kδ. Potential inhibitors were made up in DMSO and then diluted in the assay to give a final concentration of not exceeding 1% (v/v) DMSO.” for “PI3Kδ.”

Sequence of recombinant human PI3Kα (6-His(p110-p85α)) (P42336 whole entry): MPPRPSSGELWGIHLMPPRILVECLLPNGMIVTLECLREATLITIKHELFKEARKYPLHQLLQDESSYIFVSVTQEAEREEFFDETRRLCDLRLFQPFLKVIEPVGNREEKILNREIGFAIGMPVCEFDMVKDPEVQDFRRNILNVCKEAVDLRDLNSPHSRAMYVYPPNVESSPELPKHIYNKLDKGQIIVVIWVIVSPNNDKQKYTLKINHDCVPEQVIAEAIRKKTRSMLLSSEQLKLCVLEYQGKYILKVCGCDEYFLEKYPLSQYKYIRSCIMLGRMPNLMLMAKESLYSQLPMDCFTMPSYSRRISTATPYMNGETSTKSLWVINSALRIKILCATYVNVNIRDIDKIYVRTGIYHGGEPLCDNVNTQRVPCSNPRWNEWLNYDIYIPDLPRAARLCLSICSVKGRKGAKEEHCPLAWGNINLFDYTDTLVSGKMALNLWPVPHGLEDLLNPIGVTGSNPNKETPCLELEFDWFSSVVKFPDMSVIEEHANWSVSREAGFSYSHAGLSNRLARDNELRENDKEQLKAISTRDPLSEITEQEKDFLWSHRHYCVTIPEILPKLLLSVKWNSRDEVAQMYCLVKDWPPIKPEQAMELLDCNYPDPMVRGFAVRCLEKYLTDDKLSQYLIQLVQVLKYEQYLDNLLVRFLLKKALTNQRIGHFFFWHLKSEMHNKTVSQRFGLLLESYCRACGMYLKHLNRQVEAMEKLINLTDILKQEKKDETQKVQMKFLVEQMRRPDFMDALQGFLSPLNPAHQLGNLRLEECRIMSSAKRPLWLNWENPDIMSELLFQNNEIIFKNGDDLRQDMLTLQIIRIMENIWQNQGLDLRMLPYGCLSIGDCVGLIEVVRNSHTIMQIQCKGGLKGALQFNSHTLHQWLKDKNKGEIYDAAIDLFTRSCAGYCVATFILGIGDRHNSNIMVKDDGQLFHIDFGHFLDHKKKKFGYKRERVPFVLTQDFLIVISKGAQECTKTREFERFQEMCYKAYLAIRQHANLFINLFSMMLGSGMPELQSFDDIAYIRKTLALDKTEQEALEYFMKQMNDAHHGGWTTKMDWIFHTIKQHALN
Sequence of recombinant human PI3Kα (6-His(p110-p85α)) (P27986 whole entry partner): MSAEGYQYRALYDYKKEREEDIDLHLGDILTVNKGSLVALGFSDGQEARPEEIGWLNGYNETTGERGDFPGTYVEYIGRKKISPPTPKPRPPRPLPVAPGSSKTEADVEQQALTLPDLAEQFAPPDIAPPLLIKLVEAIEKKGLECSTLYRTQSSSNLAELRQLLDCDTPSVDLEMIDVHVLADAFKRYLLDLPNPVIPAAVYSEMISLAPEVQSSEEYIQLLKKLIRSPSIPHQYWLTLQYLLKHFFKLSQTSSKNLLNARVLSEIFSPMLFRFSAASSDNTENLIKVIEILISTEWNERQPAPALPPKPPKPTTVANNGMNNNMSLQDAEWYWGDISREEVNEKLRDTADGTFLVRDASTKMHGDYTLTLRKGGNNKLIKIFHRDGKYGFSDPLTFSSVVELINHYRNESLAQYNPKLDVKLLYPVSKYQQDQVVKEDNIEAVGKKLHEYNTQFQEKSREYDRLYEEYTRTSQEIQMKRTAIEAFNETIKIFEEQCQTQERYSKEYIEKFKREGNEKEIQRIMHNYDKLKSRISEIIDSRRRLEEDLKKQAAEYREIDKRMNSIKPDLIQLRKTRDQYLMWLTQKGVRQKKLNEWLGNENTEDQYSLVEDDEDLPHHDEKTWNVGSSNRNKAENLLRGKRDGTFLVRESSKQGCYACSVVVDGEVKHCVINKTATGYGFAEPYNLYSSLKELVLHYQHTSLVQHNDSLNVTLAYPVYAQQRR
Sequence of recombinant human PI3Kβ (6-His(p110-p85α)) (P42338 whole entry): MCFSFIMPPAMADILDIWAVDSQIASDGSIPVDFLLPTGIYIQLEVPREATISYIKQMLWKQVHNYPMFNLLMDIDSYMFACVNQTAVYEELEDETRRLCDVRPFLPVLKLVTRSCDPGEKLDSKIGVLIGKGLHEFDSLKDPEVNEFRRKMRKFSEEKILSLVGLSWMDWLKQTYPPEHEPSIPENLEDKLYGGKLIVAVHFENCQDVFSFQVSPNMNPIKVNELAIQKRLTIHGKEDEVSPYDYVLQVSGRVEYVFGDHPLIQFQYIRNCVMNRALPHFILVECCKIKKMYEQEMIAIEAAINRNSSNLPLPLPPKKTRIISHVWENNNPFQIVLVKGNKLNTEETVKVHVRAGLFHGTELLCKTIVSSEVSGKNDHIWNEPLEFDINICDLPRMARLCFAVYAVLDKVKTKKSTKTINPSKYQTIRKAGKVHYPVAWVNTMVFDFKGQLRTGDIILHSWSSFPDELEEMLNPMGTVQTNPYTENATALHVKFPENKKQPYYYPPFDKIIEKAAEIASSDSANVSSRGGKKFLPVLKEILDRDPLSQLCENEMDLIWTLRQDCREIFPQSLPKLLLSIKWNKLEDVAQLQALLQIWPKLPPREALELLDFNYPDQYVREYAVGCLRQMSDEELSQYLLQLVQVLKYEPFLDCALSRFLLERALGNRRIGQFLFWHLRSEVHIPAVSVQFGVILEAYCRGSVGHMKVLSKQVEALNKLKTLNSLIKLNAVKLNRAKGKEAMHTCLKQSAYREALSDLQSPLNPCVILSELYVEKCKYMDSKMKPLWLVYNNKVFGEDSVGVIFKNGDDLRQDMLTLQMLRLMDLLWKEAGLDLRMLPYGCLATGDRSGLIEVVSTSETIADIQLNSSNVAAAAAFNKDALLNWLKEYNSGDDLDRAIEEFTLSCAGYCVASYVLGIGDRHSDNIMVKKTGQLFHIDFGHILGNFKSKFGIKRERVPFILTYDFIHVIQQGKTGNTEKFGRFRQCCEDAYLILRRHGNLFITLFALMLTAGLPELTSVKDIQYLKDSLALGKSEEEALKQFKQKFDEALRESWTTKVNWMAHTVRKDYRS
Sequence of recombinant human PI3Kβ (6-His(p110-p85α)) (P27986 whole entry partner): as the sequence (P27986 whole entry partner) above
Sequence of recombinant human PI3Kδ (6-His(p110-p85α)) (O00329 whole entry): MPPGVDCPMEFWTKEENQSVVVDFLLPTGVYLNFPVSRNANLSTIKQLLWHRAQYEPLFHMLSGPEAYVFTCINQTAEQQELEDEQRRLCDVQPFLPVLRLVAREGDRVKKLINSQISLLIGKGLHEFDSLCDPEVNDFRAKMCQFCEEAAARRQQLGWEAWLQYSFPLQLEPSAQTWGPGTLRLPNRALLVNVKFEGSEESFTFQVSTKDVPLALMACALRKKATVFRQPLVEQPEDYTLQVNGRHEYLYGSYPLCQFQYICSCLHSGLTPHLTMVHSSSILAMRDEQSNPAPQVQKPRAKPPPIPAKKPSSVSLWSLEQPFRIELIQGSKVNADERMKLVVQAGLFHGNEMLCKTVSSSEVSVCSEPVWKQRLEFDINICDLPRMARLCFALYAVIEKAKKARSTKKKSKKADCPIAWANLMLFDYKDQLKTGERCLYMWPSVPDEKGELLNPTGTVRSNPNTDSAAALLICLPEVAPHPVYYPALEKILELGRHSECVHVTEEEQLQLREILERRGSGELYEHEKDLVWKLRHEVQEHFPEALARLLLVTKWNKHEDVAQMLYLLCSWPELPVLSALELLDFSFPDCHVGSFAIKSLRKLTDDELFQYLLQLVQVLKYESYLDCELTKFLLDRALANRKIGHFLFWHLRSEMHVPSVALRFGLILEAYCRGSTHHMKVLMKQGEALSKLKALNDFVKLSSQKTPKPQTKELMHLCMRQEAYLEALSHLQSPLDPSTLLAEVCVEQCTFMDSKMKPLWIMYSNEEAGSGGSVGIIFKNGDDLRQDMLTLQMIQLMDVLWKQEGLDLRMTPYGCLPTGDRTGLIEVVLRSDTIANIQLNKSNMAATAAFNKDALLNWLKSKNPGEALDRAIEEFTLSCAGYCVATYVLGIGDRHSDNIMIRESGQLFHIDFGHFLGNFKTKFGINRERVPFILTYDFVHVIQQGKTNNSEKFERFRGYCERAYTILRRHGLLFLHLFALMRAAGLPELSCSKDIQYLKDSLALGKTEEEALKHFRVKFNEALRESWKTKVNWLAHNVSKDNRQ
Sequence of recombinant human PI3Kδ (6-His(p110-p85α)) (P27986 whole entry partner): as the sequence (P27986 whole entry partner) above
Sequence of recombinant human PI3Kγ ((aa144-1102)-6His) (P48736 144-1102): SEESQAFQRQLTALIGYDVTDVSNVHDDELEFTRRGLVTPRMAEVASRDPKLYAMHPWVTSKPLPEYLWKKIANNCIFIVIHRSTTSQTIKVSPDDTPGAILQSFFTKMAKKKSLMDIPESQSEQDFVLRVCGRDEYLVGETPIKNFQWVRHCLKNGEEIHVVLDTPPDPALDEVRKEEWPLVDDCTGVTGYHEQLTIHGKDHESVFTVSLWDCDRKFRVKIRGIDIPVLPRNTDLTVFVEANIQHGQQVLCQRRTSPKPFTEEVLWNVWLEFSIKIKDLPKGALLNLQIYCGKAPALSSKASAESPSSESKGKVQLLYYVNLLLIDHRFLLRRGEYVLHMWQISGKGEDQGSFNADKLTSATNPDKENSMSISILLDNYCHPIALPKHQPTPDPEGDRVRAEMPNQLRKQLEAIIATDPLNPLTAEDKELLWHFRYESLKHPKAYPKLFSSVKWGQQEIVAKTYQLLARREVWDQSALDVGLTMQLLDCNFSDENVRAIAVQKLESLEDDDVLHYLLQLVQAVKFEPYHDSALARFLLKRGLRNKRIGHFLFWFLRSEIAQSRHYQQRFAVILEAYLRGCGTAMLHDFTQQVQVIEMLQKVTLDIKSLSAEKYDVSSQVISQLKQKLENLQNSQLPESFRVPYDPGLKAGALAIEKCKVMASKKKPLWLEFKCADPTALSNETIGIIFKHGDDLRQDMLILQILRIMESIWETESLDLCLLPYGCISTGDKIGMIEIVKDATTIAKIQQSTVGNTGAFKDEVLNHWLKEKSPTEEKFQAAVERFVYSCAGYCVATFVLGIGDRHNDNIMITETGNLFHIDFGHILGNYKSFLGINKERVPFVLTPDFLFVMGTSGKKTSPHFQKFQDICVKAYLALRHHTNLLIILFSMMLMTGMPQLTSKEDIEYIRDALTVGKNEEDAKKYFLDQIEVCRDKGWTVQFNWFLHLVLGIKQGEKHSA

Row | Structure (SMILES) | IC50 [1] [nM] | IC50 [2] [nM] | IC50 [3] [nM] | IC50 [4] [nM]
1 | CNS(=O)(=O)c1cc(-c2sc(Nc3cccc(N(C)C(=O)[C@@H](C)OC)n3)nc2C)cc2c1C(=O)N([C@@H](C)C1CC1)C2 [Example 15, (2R)—N-{6-[(5-{2-[(1S)-1-Cyclopropylethyl]-7-(methylsulfamoyl)-1-oxo-2,3-dihydro-1H-isoindol-5-yl}-4-methyl-1,3-thiazol-2-yl)amino]pyridin-2-yl}-2-methoxy-N-methylpropanamide] | 1 | 1.2 | 89 | 1160
2 | CNS(=O)(=O)c1cc(-c2sc(Nc3cccc(N4CCOCC4=O)n3)nc2C)cc2c1C(=O)N([C@@H](C)C1CC1)C2 [Example 20, 2-[(1S)-1-Cyclopropylethyl]-N-methyl-6-(4-methyl-2-{[6-(3-oxomorpholin-4-yl)pyridin-2-yl]amino}-1,3-thiazol-5-yl)-3-oxo-2,3-dihydro-1H-isoindole-4-sulfonamide] | 0.9 | 0.7 | 37 | 543
3 | CNS(=O)(=O)c1cc(-c2sc(Nc3cccc(N4CCCOC4=O)n3)nc2C)cc2c1C(=O)N([C@@H](C)C1CC1)C2 [Example 21, 2-[(1S)-1-Cyclopropylethyl]-N-methyl-6-(4-methyl-2-{[6-(2-oxo-1,3-oxazinan-3-yl)pyridin-2-yl]amino}-1,3-thiazol-5-yl)-3-oxo-2,3-dihydro-1H-isoindole-4-sulfonamide] | 1.1 | 0.6 | 19 | 103
4 | CNS(=O)(=O)c1cc(-c2sc(Nc3cccc(N4CCN(C)CC4=O)n3)nc2C)cc2c1C(=O)N([C@@H](C)C1CC1)C2 [Example 22, 2-[(1S)-1-Cyclopropylethyl]-N-methyl-6-(4-methyl-2-{[6-(4-methyl-2-oxopiperazin-1-yl)pyridin-2-yl]amino}-1,3-thiazol-5-yl)-3-oxo-2,3-dihydro-1H-isoindole-4-sulfonamide] | 1 | 1.3 | 38 | 328

Now from value to compound:

Row | IC50 [1] [nM] | IC50 [2] [nM] | IC50 [3] [nM] | IC50 [4] [nM] | Structure (SMILES)
5 | 0.9 | 0.4 | 80 | 724 | CNS(=O)(=O)c1cc(-c2sc(Nc3cccc(N(C)C(=O)COC)n3)nc2C)cc2c1C(=O)N([C@@H](C)C1CC1)C2 [Example 14, N-{6-[(5-{2-[(1S)-1-Cyclopropylethyl]-7-(methylsulfamoyl)-1-oxo-2,3-dihydro-1H-isoindol-5-yl}-4-methyl-1,3-thiazol-2-yl)amino]pyridin-2-yl}-2-methoxy-N-methylacetamide]
6 | 1.2 | 0.8 | 55 | 539 | CNS(=O)(=O)c1cc(-c2sc(Nc3cccc(N(C)C(=O)[C@H](C)OC)n3)nc2C)cc2c1C(=O)N([C@@H](C)C1CC1)C2 [Example 16, (2S)—N-{6-[(5-{2-[(1S)-1-Cyclopropylethyl]-7-(methylsulfamoyl)-1-oxo-2,3-dihydro-1H-isoindol-5-yl}-4-methyl-1,3-thiazol-2-yl)amino]pyridin-2-yl}-2-methoxy-N-methylpropanamide]
7 | 1.1 | 0.3 | 48 | 677 | CCOCC(=O)N(C)c1cccc(Nc2nc(C)c(-c3cc4c(c(S(=O)(=O)NC)c3)C(=O)N([C@@H](C)C3CC3)C4)s2)n1 [Example 17, N-{6-[(5-{2-[(1S)-1-Cyclopropylethyl]-7-(methylsulfamoyl)-1-oxo-2,3-dihydro-1H-isoindol-5-yl}-4-methyl-1,3-thiazol-2-yl)amino]pyridin-2-yl}-2-ethoxy-N-methylacetamide]
8 | 0.8 | 0.3 | 25 | 231 | CCN(C(=O)COC)c1cccc(Nc2nc(C)c(-c3cc4c(c(S(=O)(=O)NC)c3)C(=O)N([C@@H](C)C3CC3)C4)s2)n1 [Example 18, N-{6-[(5-{2-[(1S)-1-Cyclopropylethyl]-7-(methylsulfamoyl)-1-oxo-2,3-dihydro-1H-isoindol-5-yl}-4-methyl-1,3-thiazol-2-yl)amino]pyridin-2-yl}-N-ethyl-2-methoxyacetamide]
